Read-outs that look alike come from different tables or passages of the source.
System: HCV 1b genotype
Test: HCV replicon assay (HCV-neo replicon cells, wild-type)
Assay type: cell-based, Hepatitis C virus
Conditions: Hepatitis C virus, HCV 1b genotype replicon
Summary of the method: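 Inhibition was tested in replicon-bearing cells, both wild-type HCV-neo and lines with NS5A resistance substitutions, using the O'Boyle et al. 2005 replicon method or luciferase-reporter formats.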

[1] = class symbol, read-out: EC50 Range against HCV 1b

Compound	EC50 [1] [nM]	EC50 (read-out: EC50 1b) [nM]
O=C(Nc1cccc(-c2ccc(-c3cccc(NC(=O)[C@@H]4CCCN4C(=O)Cc4ccccc4)c3)s2)c1)[C@@H]1CCCN1C(=O)Cc1ccccc1 [OL-25, (2S,2′S)-N,N′-(2,5-thienediyldi-3,1-phenylene)bis[1-(phenylacetyl)-2-pyrrolidinecarboxamide]]	4.57 to 99	–
O=C(Nc1ccc(-c2cc(-c3ccc(NC(=O)[C@@H]4CCCN4C(=O)OCc4ccccc4)cc3)[nH]n2)cc1)[C@@H]1CCCN1C(=O)OCc1ccccc1 [OL-26, (2S,2′S)-2,2′-[1H-pyrazole-3,5-diylbis(4,1-phenyleneiminocarbonyl)]bis-1-pyrrolidinecarboxylic acid, bis(phenylmethyl) ester]	4.57 to 99	–
O=C(Nc1ccc(-c2cc(-c3ccc(NC(=O)[C@@H]4CCCN4C(=O)Cc4ccccc4)cc3)[nH]n2)cc1)[C@@H]1CCCN1C(=O)Cc1ccccc1 [OL-27, (2S,2′S)-N,N′-(1H-pyrazole-3,5-diyldi-4,1-phenylene)bis[1-(phenylacetyl)-2-pyrrolidinecarboxamide]]	4.57 to 99	10
O=C(Nc1ccc(-c2cc(-c3ccc(NC(=O)[C@@H]4C[C@@H](O)CN4C(=O)Cc4ccccc4)cc3)[nH]n2)cc1)[C@@H]1C[C@@H](O)CN1C(=O)Cc1ccccc1 [OL-28, (2S,4R,2′S,4′R)-N,N′-(1H-pyrazole-3,5-diyldi-4,1-phenylene)bis(4-hydroxy-1-(phenylacetyl)-2-pyrrolidinecarboxamide)]	4.57 to 99	–
CC(=O)N1CCC[C@H]1C(=O)Nc1ccc(-c2cc(-c3ccc(NC(=O)[C@@H]4CCCN4C(C)=O)cc3)[nH]n2)cc1 [OL-29, (2S,2′S)-N,N′-(1H-pyrazole-3,5-diyldi-4,1-phenylene)bis(1-acetyl-2-pyrrolidinecarboxamide)]	1000 to 10000	4550
CC(=O)N1CC=C[C@H]1C(=O)Nc1ccc(-c2cc(-c3ccc(NC(=O)[C@@H]4C=CCN4C(C)=O)cc3)[nH]n2)cc1 [OL-30, (2S,2′S)-N,N′-(1H-pyrazole-3,5-diyldi-4,1-phenylene)bis(1-acetyl-2,5-dihydro-1H-pyrrole-2-carboxamide)]	1000 to 10000	–
CC(C)C(=O)N1CCC[C@H]1C(=O)Nc1ccc(-c2cc(-c3ccc(NC(=O)[C@@H]4CCCN4C(=O)C(C)C)cc3)[nH]n2)cc1 [OL-31, (2S,2′S)-N,N′-(1H-pyrazole-3,5-diyldi-4,1-phenylene)bis(1-isobutyryl-2-pyrrolidinecarboxamide)]	100 to 999	–
CCC(=O)N1CCC[C@H]1C(=O)Nc1ccc(-c2cc(-c3ccc(NC(=O)[C@@H]4CCCN4C(=O)CC)cc3)[nH]n2)cc1 [OL-32, (2S,2′S)-N,N′-(1H-pyrazole-3,5-diyldi-4,1-phenylene)bis(1-propionyl-2-pyrrolidinecarboxamide)]	1000 to 10000	–
O=C(Nc1ccc(-c2cc(-c3ccc(NC(=O)[C@@H]4CCCN4C(=O)C4CCC4)cc3)[nH]n2)cc1)[C@@H]1CCCN1C(=O)C1CCC1 [OL-33, (2S,2′S)-N,N′-(1H-pyrazole-3,5-diyldi-4,1-phenylene)bis(1-(cyclobutylcarbonyl)-2-pyrrolidinecarboxamide)]	100 to 999	–
O=C(Nc1ccc(-c2cc(-c3ccc(NC(=O)[C@@H]4CCCN4C(=O)c4ccncc4)cc3)[nH]n2)cc1)[C@@H]1CCCN1C(=O)c1ccncc1 [OL-34, (2S,2′S)-N,N′-(1H-pyrazole-3,5-diyldi-4,1-phenylene)bis(1-isonicotinoyl-2-pyrrolidinecarboxamide)]	1000 to 10000	–
O=C(Nc1ccc(-c2cc(-c3ccc(NC(=O)[C@@H]4CCCN4C(=O)C4CC4)cc3)[nH]n2)cc1)[C@@H]1CCCN1C(=O)C1CC1 [OL-35, (2S,2′S)-N,N′-(1H-pyrazole-3,5-diyldi-4,1-phenylene)bis(1-(cyclopropylcarbonyl)-2-pyrrolidinecarboxamide)]	1000 to 10000	8250
CC(=O)N1CCC[C@H]1C(=O)Nc1ccc(-c2cc(-c3ccc(NC(=O)[C@@H]4CCCN4C(=O)Cc4ccccc4)cc3)n[nH]2)cc1 [OL-36, (2S)-1-acetyl-N-(4-(3-(4-((((2S)-1-(phenylacetyl)-2-pyrrolidinyl)carbonyl)amino)phenyl)-1H-pyrazol-5-yl)phenyl)-2-pyrrolidinecarboxamide]	100 to 999	–
O=C(Nc1ccc(-c2cc(-c3ccc(NC(=O)[C@@H]4C=CCN4C(=O)C4CC4)cc3)[nH]n2)cc1)[C@@H]1C=CCN1C(=O)C1CC1 [OL-37, (2S,2′S)-N,N′-(1H-pyrazole-3,5-diyldi-4,1-phenylene)bis(1-(cyclopropylcarbonyl)-2,5-dihydro-1H-pyrrole-2-carboxamide)]	1000 to 10000	–
O=C(Nc1ccc(-c2cc(-c3ccc(NC(=O)[C@@H]4C=CCN4C(=O)C4CCC4)cc3)[nH]n2)cc1)[C@@H]1C=CCN1C(=O)C1CCC1 [OL-38, (2S,2′S)-N,N′-(1H-pyrazole-3,5-diyldi-4,1-phenylene)bis(1-(cyclobutylcarbonyl)-2,5-dihydro-1H-pyrrole-2-carboxamide)]	1000 to 10000	10000
O=C(Nc1ccc(-c2cc(-c3ccc(NC(=O)[C@@H]4C=CCN4C(=O)CC4CCCC4)cc3)[nH]n2)cc1)[C@@H]1C=CCN1C(=O)CC1CCCC1 [OL-39, (2S,2′S)-N,N′-(1H-pyrazole-3,5-diyldi-4,1-phenylene)bis[1-(cyclopentylacetyl)-2,5-dihydro-1H-pyrrole-2-carboxamide]]	1000 to 10000	–
O=C(Nc1ccc(-c2cc(-c3ccc(NC(=O)[C@@H]4CCCN4C(=O)c4nc(Cl)cc5ccccc45)cc3)[nH]n2)cc1)[C@@H]1CCCN1C(=O)c1nc(Cl)cc2ccccc12 [OL-40, (2S,2′S)-N,N′-(1H-pyrazole-3,5-diyldi-4,1-phenylene)bis(1-((3-chloro-1-isoquinolinyl)carbonyl)-2-pyrrolidinecarboxamide)]	4.57 to 99	–
COc1cccc2c(C(=O)N3CCC[C@H]3C(=O)Nc3ccc(-c4cc(-c5ccc(NC(=O)[C@@H]6CCCN6C(=O)c6nc(Cl)cc7c(OC)cccc67)cc5)[nH]n4)cc3)nc(Cl)cc12 [OL-41, (2S,2′S)-N,N′-(1H-pyrazole-3,5-diyldi-4,1-phenylene)bis(1-((3-chloro-5-methoxy-1-isoquinolinyl)carbonyl)-2-pyrrolidinecarboxamide)]	4.57 to 99	–
CC(=O)N[C@@H](C(=O)N1CCCC1C(=O)Nc1ccc(-c2cc(-c3ccc(NC(=O)C4CCCN4C(=O)[C@H](NC(C)=O)c4ccccc4)cc3)[nH]n2)cc1)c1ccccc1 (stereo partly drawn) [OL-42, N,N′-(1H-pyrazole-3,5-diyldi-4,1-phenylene)bis(1-((2R)-2-acetamido-2-phenylacetyl)-2-pyrrolidinecarboxamide)]	< 4.57	–
C[C@H](NC(=O)[C@H](O)c1ccccc1)C(=O)Nc1ccc(-c2cc(-c3ccc(NC(=O)[C@@H](C)NC(=O)[C@H](O)c4ccccc4)cc3)[nH]n2)cc1 [OL-44, (S)-2-((R)-2-hydroxy-2-phenylacetamido)-N-(4-(5-(4-((R)-2-((R)-2-hydroxy-2-phenylacetamido)propanamido)phenyl)-1H-pyrazol-3-yl)phenyl)propanamide]	< 4.57	–
C[C@H](NC(=O)[C@@](C)(O)c1ccccc1)C(=O)Nc1ccc(-c2cc(-c3ccc(NC(=O)[C@H](C)NC(=O)[C@@](C)(O)c4ccccc4)cc3)[nH]n2)cc1 [OL-45, (2S,2′S)-N,N′-(1H-pyrazole-3,5-diylbis(4,1-phenyleneimino((2S)-1-oxo-1,2-propanediyl)))bis(2-hydroxy-2-phenylpropanamide)]	< 4.57	–
C[C@H](NC(=O)[C@](C)(O)c1ccccc1)C(=O)Nc1ccc(-c2cc(-c3ccc(NC(=O)[C@H](C)NC(=O)[C@](C)(O)c4ccccc4)cc3)[nH]n2)cc1 [OL-46, (2R,2′R)-N,N′-(1H-pyrazole-3,5-diylbis(4,1-phenyleneimino((2S)-1-oxo-1,2-propanediyl)))bis(2-hydroxy-2-phenylpropanamide)]	4.57 to 99	–
C[C@H](NC(=O)c1cc(Cl)cc2ccccc12)C(=O)Nc1ccc(-c2cc(-c3ccc(NC(=O)[C@H](C)NC(=O)c4cc(Cl)cc5ccccc45)cc3)[nH]n2)cc1 [OL-47, N,N′-(1H-pyrazole-3,5-diylbis(4,1-phenyleneimino((2S)-1-oxo-1,2-propanediyl)))bis(3-chloro-1-naphthamide)]	4.57 to 99	–
C[C@H](NC(=O)c1nc(Cl)cc2ccccc12)C(=O)Nc1ccc(-c2cc(-c3ccc(NC(=O)[C@H](C)NC(=O)c4nc(Cl)cc5ccccc45)cc3)[nH]n2)cc1 [OL-48, N,N′-(1H-pyrazole-3,5-diylbis(4,1-phenyleneimino((2S)-1-oxo-1,2-propanediyl)))bis(3-chloro-1-isoquinolinecarboxamide)]	100 to 999	280
CC(C)(C)O[C@@H]1C[C@@H](C(=O)Nc2ccc(-c3cc(-c4ccc(NC(=O)[C@@H]5C[C@@H](OC(C)(C)C)CN5C(=O)OCc5ccccc5)cc4)[nH]n3)cc2)N(C(=O)OCc2ccccc2)C1 [OL-49, dibenzyl (2S,4R,2′S,4′R)-2,2′-(1H-pyrazole-3,5-diylbis(4,1-phenylenecarbamoyl))bis(4-tert-butoxy-1-pyrrolidinecarboxylate)]	100 to 999	230
O=C(Nc1ccc(-c2cnc(-c3ccc(NC(=O)[C@@H]4CCCN4C(=O)c4cccc(F)n4)cc3)o2)cc1)[C@@H]1CCCN1C(=O)c1cccc(F)n1 [OL-50, (2S,2′S)-N,N′-(1,3-oxazole-2,5-diyldi-4,1-phenylene)bis(1-((6-fluoro-2-pyridinyl)carbonyl)-2-pyrrolidinecarboxamide)]	100 to 999	–
CN(C)[C@@H](C(=O)N1CCCC1C(=O)Nc1ccc(-c2ncc(-c3ccc(NC(=O)[C@@H]4CCCN4C(=O)[C@@H](c4ccccc4)N(C)C)cc3)o2)cc1)c1ccccc1 (stereo partly drawn) [OL-51, (2S)-N,N′-(1,3-oxazole-2,5-diyldi-4,1-phenylene)bis(1-((2R)-2-(dimethylamino)-2-phenylacetyl)-2-pyrrolidinecarboxamide)]	4.57 to 99	–
COc1cccc2c(C(=O)N3CCC[C@H]3C(=O)Nc3ccc(-c4cnc(-c5ccc(NC(=O)[C@@H]6CCCN6C(=O)c6nc(Cl)cc7c(OC)cccc67)cc5)o4)cc3)nc(Cl)cc12 [OL-52, (2S,2′S)-N,N′-(1,3-oxazole-2,5-diyldi-4,1-phenylene)bis(1-((3-chloro-5-methoxy-1-isoquinolinyl)carbonyl)-2-pyrrolidinecarboxamide)]	100 to 999	30

From patent US8735398B2 (Bristol-Myers Squibb Company, priority 2009, dated 2014)
